According to ChEMBL document CHEMBL1909294, “Translating clinical findings into knowledge in drug safety evaluation--drug induced liver injury prediction system (DILIps)” (PLoS Comput Biol, 2011):
*1 amine or outer side, *2 acyl side, *3 side chain or, on linkers, in order; H or OH if unused. Where a SMILES comes first, the peptide text is derived from it. Bridges are numbered along the chain shown (N, C = ends). [ ]: non-standard residue; d: D form. The star is where a group is joined. ξ: configuration not given here. X2 = N=C1NCCC([C@H](N[*:1])C(=O)[*:2])N1; ΔAla(Z-3-ureido) = NC(=O)N/C=C(\N)C(=O)O; ξβ3hOrn = NCCCC(N)CC(=O)*; Dap = NC[C@H](N)C(=O)O

Assays:
Hepatotoxicity [1] = test system: Hepatotoxicity;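 for HepSE Combined Scores: combined hepatic side effect score as listed in the training data of the Drug Induced Liver Injury Prediction System (DILIps)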;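 for HepSE cholelithiasis: hepatic side effect score for cholelithiasis, drawn from the DILIps training data for predicting drug-induced liver injury; call rule not given here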;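 for HepSE elevated liver function tests: hepatic side effect score for raised liver function tests, as recorded in the DILIps training set used for predicting drug-induced liver injury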;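 for HepSE hepatic necrosis: score of hepatic side effects for hepatic necrosis, drawn from the training data of DILIps, a prediction system for drug-induced liver injury; call rule not given here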;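 for HepSE hepatomegaly: hepatic side effect score for hepatomegaly, taken from the training set of the DILIps drug-induced liver injury prediction system; call rule not given here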;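 for HepSE liver function tests abnormal: hepatic side effect score taken from the DILIps (drug-induced liver injury prediction system) training data, here covering abnormal liver function test findings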
Hepatotoxicity [2] = test system: Hepatotoxicity; remark: listed apart in the source;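 for HepSE Combined Scores: combined hepatic side effect score as listed in the training data of the Drug Induced Liver Injury Prediction System (DILIps)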;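 for HepSE cholelithiasis: hepatic side effect score for cholelithiasis, drawn from the DILIps training data for predicting drug-induced liver injury; call rule not given here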;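 for HepSE elevated liver function tests: hepatic side effect score for raised liver function tests, as recorded in the DILIps training set used for predicting drug-induced liver injury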;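 for HepSE hepatic necrosis: score of hepatic side effects for hepatic necrosis, drawn from the training data of DILIps, a prediction system for drug-induced liver injury; call rule not given here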;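 for HepSE hepatomegaly: hepatic side effect score for hepatomegaly, taken from the training set of the DILIps drug-induced liver injury prediction system; call rule not given here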;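 for HepSE liver function tests abnormal: hepatic side effect score taken from the DILIps (drug-induced liver injury prediction system) training data, here covering abnormal liver function test findings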
Hepatotoxicity [3] = test system: Hepatotoxicity; remark: listed apart in the source;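 for HepSE Combined Scores: combined hepatic side effect score as listed in the training data of the Drug Induced Liver Injury Prediction System (DILIps)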;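 for HepSE cholelithiasis: hepatic side effect score for cholelithiasis, drawn from the DILIps training data for predicting drug-induced liver injury; call rule not given here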;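 for HepSE hepatic necrosis: score of hepatic side effects for hepatic necrosis, drawn from the training data of DILIps, a prediction system for drug-induced liver injury; call rule not given here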;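 for HepSE hepatomegaly: hepatic side effect score for hepatomegaly, taken from the training set of the DILIps drug-induced liver injury prediction system; call rule not given here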;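 for HepSE liver function tests abnormal: hepatic side effect score taken from the DILIps (drug-induced liver injury prediction system) training data, here covering abnormal liver function test findings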
Hepatotoxicity [4] = test system: Hepatotoxicity; remark: listed apart in the source;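 for HepSE Combined Scores: combined hepatic side effect score as listed in the training data of the Drug Induced Liver Injury Prediction System (DILIps)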;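 for HepSE cholelithiasis: hepatic side effect score for cholelithiasis, drawn from the DILIps training data for predicting drug-induced liver injury; call rule not given here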;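 for HepSE hepatic necrosis: score of hepatic side effects for hepatic necrosis, drawn from the training data of DILIps, a prediction system for drug-induced liver injury; call rule not given here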;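 for HepSE hepatomegaly: hepatic side effect score for hepatomegaly, taken from the training set of the DILIps drug-induced liver injury prediction system; call rule not given here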;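 for HepSE liver function tests abnormal: hepatic side effect score taken from the DILIps (drug-induced liver injury prediction system) training data, here covering abnormal liver function test findings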
Hepatotoxicity [5] = test system: Hepatotoxicity; remark: listed apart in the source
Hepatotoxicity [6] = test system: Hepatotoxicity; remark: listed apart in the source
Hepatotoxicity [7] = test system: Hepatotoxicity; remark: listed apart in the source
Hepatotoxicity [8] = test system: Hepatotoxicity; remark: listed apart in the source
Hepatotoxicity [9] = test system: Hepatotoxicity; remark: listed apart in the source
Hepatotoxicity [10] = test system: Hepatotoxicity; remark: listed apart in the source
Hepatotoxicity [11] = test system: Hepatotoxicity; remark: listed apart in the source
Hepatotoxicity [12] = test system: Hepatotoxicity; remark: listed apart in the source
Hepatotoxicity [13] = test system: Hepatotoxicity; remark: listed apart in the source
Hepatotoxicity [14] = test system: Hepatotoxicity; remark: listed apart in the source

Row | SMILES | HepSE_Combined Scores (Hepatotoxicity [1]) | HepSE_liver function tests abnormal (Hepatotoxicity [2]) | HepSE_hepatic necrosis (Hepatotoxicity [3]) | HepSE_hepatomegaly (Hepatotoxicity [4]) | HepSE_cholelithiasis (Hepatotoxicity [5]) | HepSE_elevated liver function tests (Hepatotoxicity [6]) | HepSE_liver fatty (Hepatotoxicity [7]) | HepSE_hepatic failure (Hepatotoxicity [8]) | HepSE_hepatitis (Hepatotoxicity [9]) | HepSE_cirrhosis (Hepatotoxicity [10]) | HepSE_liver disease (Hepatotoxicity [11]) | HepSE_bilirubinemia (Hepatotoxicity [12]) | HepSE_cholecystitis (Hepatotoxicity [13]) | HepSE_jaundice (Hepatotoxicity [14])
1 | C=CCN1C[C@H](C(=O)N(CCCN(C)C)C(=O)NCC)C[C@@H]2c3cccc4[nH]cc(c34)C[C@H]21 [CABERGOLINE] | 1 | 1 | 0 | 0 | 0 | 0 | 0 | 0 | 0 | 0 | 0 | 0 | 0 | 0
2 | Cn1c(=O)c2c(ncn2C)n(C)c1=O [CAFFEINE] | 0 | 0 | 0 | 0 | 0 | 0 | 0 | 0 | 0 | 0 | 0 | 0 | 0 | 0
3 | C=C1/C(=C\C=C2/CCC[C@]3(C)[C@@H]([C@H](C)/C=C/[C@@H](O)C4CC4)CC[C@@H]23)C[C@@H](O)C[C@@H]1O [CALCIPOTRIENE] | 0 | 0 | 0 | 0 | 0 | 0 | 0 | 0 | 0 | 0 | 0 | 0 | 0 | 0
4 | C=C1/C(=C\C=C2/CCC[C@]3(C)[C@@H]([C@H](C)CCCC(C)(C)O)CC[C@@H]23)C[C@@H](O)C[C@@H]1O [CALCITRIOL] | 0 | 0 | 0 | 0 | 0 | 0 | 0 | 0 | 0 | 0 | 0 | 0 | 0 | 0
5 | CCCCCOC(=O)Nc1nc(=O)n([C@@H]2O[C@H](C)[C@@H](O)[C@H]2O)cc1F [CAPECITABINE] | 7 | 1 | 0 | 1 | 0 | 0 | 1 | 1 | 1 | 0 | 0 | 1 | 0 | 1
6 | C[C@@H]1NC(=O)[C@@H](N)CNC(=O)[C@H](C2CCNC(=N)N2)NC(=O)/C(=C/NC(N)=O)NC(=O)[C@H](CNC(=O)CC(N)CCCN)NC1=O.N=C1NCCC([C@@H]2NC(=O)/C(=C/NC(N)=O)NC(=O)[C@H](CNC(=O)CC(N)CCCN)NC(=O)[C@H](CO)NC(=O)[C@@H](N)CNC2=O)N1 (stereo partly drawn) [CAPREOMYCIN] (H-[Dap]S[Dap](ξβ3hOrn)[ΔAla(Z-3-ureido)][X2]; lactam 1-C) | 1 | 0 | 0 | 0 | 0 | 0 | 0 | 0 | 0 | 0 | 1 | 0 | 0 | 0
7 | C[C@H](CS)C(=O)N1CCC[C@H]1C(=O)O [CAPTOPRIL] | 2 | 0 | 0 | 0 | 0 | 0 | 0 | 0 | 1 | 0 | 0 | 0 | 0 | 1
8 | C[N+](C)(C)CCOC(N)=O.[Cl-] [CARBACHOL] | 0 | 0 | 0 | 0 | 0 | 0 | 0 | 0 | 0 | 0 | 0 | 0 | 0 | 0
9 | NC(=O)N1c2ccccc2C=Cc2ccccc21 [CARBAMAZEPINE] | 4 | 1 | 0 | 0 | 0 | 0 | 0 | 1 | 1 | 0 | 0 | 0 | 0 | 1
10 | CC1(C)S[C@@H]2[C@H](NC(=O)C(C(=O)Oc3ccc4c(c3)CCC4)c3ccccc3)C(=O)N2[C@H]1C(=O)[O-].[Na+] (stereo partly drawn) [CARBENICILLIN INDANYL SODIUM] | 0 | 0 | 0 | 0 | 0 | 0 | 0 | 0 | 0 | 0 | 0 | 0 | 0 | 0
11 | CC1(C)S[C@@H]2[C@H](NC(=O)C(C(=O)O)c3ccccc3)C(=O)N2[C@H]1C(=O)O (stereo partly drawn) [CARBENICILLIN] | 0 | 0 | 0 | 0 | 0 | 0 | 0 | 0 | 0 | 0 | 0 | 0 | 0 | 0
12 | CN(C)CCOC(c1ccc(Cl)cc1)c1ccccn1 (stereo not drawn) [CARBINOXAMINE] | 0 | 0 | 0 | 0 | 0 | 0 | 0 | 0 | 0 | 0 | 0 | 0 | 0 | 0
13 | CCCC(C)(COC(N)=O)COC(=O)NC(C)C (stereo not drawn) [CARISOPRODOL] | 0 | 0 | 0 | 0 | 0 | 0 | 0 | 0 | 0 | 0 | 0 | 0 | 0 | 0
14 | O=NN(CCCl)C(=O)NCCCl [CARMUSTINE] | 1 | 1 | 0 | 0 | 0 | 0 | 0 | 0 | 0 | 0 | 0 | 0 | 0 | 0
15 | C[N+](C)(C)CC(O)CC(=O)[O-] (stereo not drawn) [CARNITINE] | 0 | 0 | 0 | 0 | 0 | 0 | 0 | 0 | 0 | 0 | 0 | 0 | 0 | 0
16 | CC(C)(C)NCC(O)COc1cccc2c1CCC(=O)N2 (stereo not drawn) [CARTEOLOL] | 0 | 0 | 0 | 0 | 0 | 0 | 0 | 0 | 0 | 0 | 0 | 0 | 0 | 0
17 | COc1ccccc1OCCNCC(O)COc1cccc2[nH]c3ccccc3c12 (stereo not drawn) [CARVEDILOL] | 1 | 0 | 0 | 0 | 0 | 0 | 0 | 0 | 0 | 0 | 0 | 1 | 0 | 0
